Test results: US6518314B1, “Pharmaceutical agents that impede the initiation and progression of primary and secondary DMS disruptions” (Nymox Corporation, priority 1997, dated 2003)

System: human DMS
Experiment: In vivo assay: intracerebral injection of human DMS plus compound into rats, histology of DMS disruption site
Conditions: for Mean Volume Disrupted DMS: mean tissue volume of transformed redistributed disrupted DMS protein per individual DMS, rats, about 100,000 human DMS and compound at 10^−5M; for Persistence of Inflamm. Reaction: ratio of number of acute inflammatory cells (excluding macrophages) per DMS at the DMS disruption site; for Persistence of Inflamm. Reaction / Digestion and removal of DMS: compared to control (ii) normalized to 1.0, compound at 10^−5M; for Digestion and removal of DMS: ratio of number of macrophages containing DMS material per DMS at the DMS disruption site

SMILES | Mean Volume Disrupted DMS | Persistence of Inflamm. Reaction | Digestion and removal of DMS
CC(Cc1ccccc1)N1CCN(C(c2ccccc2)c2ccccc2)CC1 (racemic) [Compound 1, (±)-1-(1-Phenylisopropyl)-4-(diphenylmethyl)piperazine] | 1250 μ^3 | <0.01 | >10
Clc1ccc2c(c1)C(N1CCNCC1)=Nc1ccccc1O2 [Amoxepine] | 1.36 × 10^5 μ^3 | 1.1 | 1.0
CN1[C@@H]2CC[C@H]1C[C@@H](OC(=O)C(CO)c1ccccc1)C2 (stereo partly drawn) [Atropine] |  | 1.0 | 1.0
CC(C)C[C@H]1C(=O)N2CCC[C@H]2[C@]2(O)O[C@](NC(=O)[C@@H]3C=C4c5cccc6[nH]c(Br)c(c56)C[C@H]4N(C)C3)(C(C)C)C(=O)N12 [Bromocriptine] | 1.04 × 10^5 μ^3 | 1.0 | 1.0
c1ccc(C(OCCOC(c2ccccc2)c2ccccc2)c2ccccc2)cc1 [Compound 2, 1,2-Bis(diphenylmethoxy)ethane] | 560 μ^3 | <0.01 | >10
Clc1ccc(C(OCCOC(c2ccccc2)c2ccc(Cl)cc2)c2ccccc2)cc1 (stereo not drawn) [Compound 4, 1,2-Bis(4chlorophenylphenylmethoxy)ethane] | 580 μ^3 | <0.01 | >10
FC(F)(F)c1ccc(C(OCCOC(c2ccccc2)c2ccc(C(F)(F)F)cc2)c2ccccc2)cc1 (stereo not drawn) [Compound 5, 1,2-Bis(4-trifluoromethylphenylphenylmethoxy)ethane] | 940 μ^3 | <0.01 | >10
Cc1ccccc1C(OCCOC(c1ccccc1)c1ccccc1C)c1ccccc1 (stereo not drawn) [Compound 6, 1,2-Bis(2-methylphenylphenylmethoxy)ethane] | 940 μ^3 | <0.01 | >10
CN(CCC=C1c2ccccc2CCc2ccccc21)CCOC(c1ccccc1)c1ccccc1 [Compound 9, 3-(10,11-Dihydro-5H-dibenzo[a,d]cyclohepten-5-ylidene-N-methyl-N-[2-(diphenylmethoxy)ethyl)]-1-propaneamine] | 482 μ^3 | <0.01 | >10
CN(CCC=C1c2ccccc2CCc2ccccc21)CCOC(c1ccccc1)c1ccc(Cl)cc1 (stereo not drawn) [Compound 10, 3-(10,11-Dihydro-5H-dibenzo[a,d]cyclohepten-5-ylidene-N-methyl-N-[2-(4-chlorophenylphenylmethoxy)ethyl)]-1-propaneamine] | 460 μ^3 | <0.01 | >10
COC(=O)C1=C(C)N(CCOC(c2ccccc2)c2ccccc2)C(C)=C(C(=O)OC)C1c1ccccc1 [Compound 11] | 1260 μ^3 | <0.01 | >10
CC(COc1ccc(/C(=C/c2ccccc2)c2ccccc2)cc1)N1CCN(C(c2ccccc2)c2ccccc2)CC1 (stereo not drawn) [Compound 12] | 740 μ^3 | <0.01 | >10
Cn1cnc2c1c(=O)n(CCOC(c1ccccc1)c1ccccc1)c(=O)n2C [Compound 13] | 1625 μ^3 | <0.01 | >10
Cn1cnc2c1c(=O)n(CCOC(c1ccccc1)c1ccc(Cl)cc1)c(=O)n2C (stereo not drawn) [Compound 14] | 1625 μ^3 | <0.01 | >10
CN1C(=O)CN=C(c2ccccc2)c2cc(Cl)ccc21 [Diazepam] | 6.5 × 10^4 μ^3 | 1.1 | 1.0
CC[N+](C)(C)c1cccc(O)c1 [Edrophonium Chloride] |  | 1.0 | 1.0
C[C@@H](CO)NC(=O)[C@@H]1C=C2c3cccc4[nH]cc(c34)C[C@H]2N(C)C1 [Ergonovine] | 5.2 × 10^4 μ^3 | 1.0 | 1.0
CN1C[C@H](C(=O)N[C@]2(C)O[C@@]3(O)[C@@H]4CCCN4C(=O)[C@H](Cc4ccccc4)N3C2=O)C=C2c3cccc4[nH]cc(c34)C[C@H]21 [Ergotamine] | 5.8 × 10^4 μ^3 | 1.0 | 1.0
CN(C)CCCN1c2ccccc2CCc2ccccc21 [Imipramine] | 1.38 × 10^5 μ^3 | 1.0 | 1.0
O=C1Nc2ccc(Cl)cc2C(c2ccccc2Cl)=NC1O (stereo not drawn) [Lorazepam] | 8.2 × 10^4 μ^3 | 1.1 | 1.0
CCOC(=O)C1(c2ccccc2)CCN(C)CC1 [Meperidine] | 2.1 × 10^5 μ^3 | 1.0 | 1.0
COC(=O)C(c1ccccc1)C1CCCCN1 (stereo not drawn) [Methylphenidate] | 5.8 × 10^4 μ^3 | 1.1 | 1.01
CN(C)C(=O)Oc1cccc([N+](C)(C)C)c1 [Neostigmine] | 1.4 × 10^5 μ^3 | 1.1 | 1.0
O=C1Nc2ccc(Cl)cc2C(c2ccccc2)=NC1O (stereo not drawn) [Oxazepam] | 6.8 × 10^4 μ^3 | 1.1 | 1.0
CCCN1C[C@H](CSC)C[C@@H]2c3cccc4[nH]cc(c34)C[C@H]21 [Pergolide] | 1.2 × 10^5 μ^3 | 1.1 | 1.0
CNC(=O)Oc1ccc2c(c1)[C@]1(C)CCN(C)[C@@H]1N2C [Physostigmine] | 1.1 × 10^5 μ^3 | 1.0 | 1.0
CC[C@@H]1C(=O)OC[C@@H]1Cc1cncn1C [Pilocarpine] | 1.7 × 10^5 μ^3 | 1.1 | 1.0
CN(C)C(=O)Oc1ccc[n+](C)c1 [Pyridostigmine bromide] |  | 1.1 | 1.0
C#CCN(C)[C@H](C)Cc1ccccc1 [Selegiline] | 1.3 × 10^5 μ^3 | 1.0 | 1.0
Nc1c2c(nc3ccccc13)CCCC2 [Tacrine] | 1.4 × 10^5 μ^3 | 1.1 | 1.0
